Measurements published in article PMC10700347, “Semisynthesis of 5-O-ester derivatives of renieramycin T and their cytotoxicity against non-small-cell lung cancer cell lines” (Scientific Reports, 2023).
Where two headings read alike, the source gives them in different places.

Tests used:
[1] = tested on: H460 non-small-cell lung cancer cell line; assay: cells; type: cell-based; details: Homo sapiens, NCI-H460, H460, MTT
Method: (§1) The in vitro cytotoxicity of all the semisynthesized esters and their precursors against H292 and H460 human NSCLC cell lines was analyzed based on the mitochondrial dehydrogenase activity via the MTT assay[43] (Table 1). The compounds were tested at doses of 1–250 nM. Cisplatin and doxorubicin, which are the standard chemotherapeutic drugs for the treatment of NSCLC, were used as positive controls. […] However, the extended use of 1 is limited by the concerns for unwanted necrosis, which is an unprogrammed form of cell death caused by the presence of two quinone moieties. […] The IC50 values of the 5-O-ester derivatives 3a, 3b, 3d, 3h, 3i, and 3k were in the same range as the mother compound 1.
(§2) The in vitro cytotoxicity of compounds 3a–3o, 4a, and 4b was determined against the H292 and H460 NSCLC cell lines by the MTT colorimetric assay. Each compound was dissolved in DMSO to prepare a 10 mM stock solution. Both the H292 and H460 cells were cultured in RPMI 1640 medium supplemented with 2 mM L-glutamine, 10% FBS, and 100 units/mL of penicillin–streptomycin at 37 °C under 5% CO2. The NSCLC cells were trypsinized and seeded with a density of 5 × 10^3 cells/well in a 96-well plate, followed by overnight incubation. Serial dilutions of the test compounds ranging from 1 to 250 nM were prepared in the presence of DMSO (< 0.2% v/v). […] After incubation, formazan crystals were solubilized by adding 100 µL of DMSO, and their absorbance was measured at 570 nm by a spectrophotometric microtiter plate reader (PerkinElmer Victor 3 1420 Multilabel Plate Counter). Cell viability was calculated as the percentage of nontreated control cells. The mean IC50 values were obtained from three independent experiments. Each experiment was conducted in triplicate with at least five concentrations of the tested compounds. The GraphPad Prism software (version 5) was used to calculate the average IC50 and standard deviation (S.D.) values for each experiment. Cisplatin and doxorubicin were used as the positive controls, while 0.2% DMSO served as the negative control.

[2] = tested on: H292 non-small-cell lung cancer cell line; assay: cells; type: cell-based; details: Homo sapiens, NCI-H292, H292, MTT
Method: as §1, §2

[3] = tested on: human keratinocyte (HaCaT) cell line; assay: MTT cell viability on normal cell line HaCaT; type: cell-based; details: Homo sapiens, 24 h, read-out: IC50 ± S.D. HaCaT
Method: (§3) DP and BEAS-2B were seeded into 96-well plates at densities of 1 × 10^4 cells per well, while HaCaT cells were seeded at densities of 5 × 10^3 cells per well. The cells were allowed to adhere for 24 h. Subsequently, the cells were treated with various concentrations of compounds 3a–3o, 4a, and 4b at 72 h for DP cells and at 24 h for HaCaT and BEAS-2B cells. After the treatment period, cells were incubated with 0.5 mg/ml of MTT for 2 h. The resulting MTT product was measured at 570 nm using a spectrophotometric microplate reader. Cell viability was calculated by comparing the optical density (OD) measurements to those of the untreated control, and the results were expressed as a percentage.

[4] = tested on: H292 NSCLC cells; assay: Annexin V-FITC/PI double staining flow cytometry, H292; type: cell-based, human; details: H292, 7 h; statement for 1 at 20 µM
Method: (§4) Apoptosis cell death was investigated following the manufacturer's protocol (ImmunoTools, Friesoythe, Germany) using FITC–labeled Annexin V/PI. Treated cells was cultured overnight in 24-well plates at a density of 5 × 10^4 cells/well. Subsequently, cells were treated with various concentrations of 1, and 3b (0, 0.1, 1, 5, 10, and 20 µM) for 7 h. After treatment, cells were collected, washed with cold PBS, and then suspended in binding buffer. Each cell suspension was stained with 2.5 µL of annexin V-FITC and 1 µL of PI. The mixture was vortexed, then incubated for 15 min at room temperature. Guava easyCyte flow cytometer (EMD Millipore, Hayward, CA, USA) was utilized to detect live, apoptotic, and necrotic cells. The modes of cell death were classified as necrotic (PI+), and apoptotic cell death, divided into early apoptotic (PI (-) Annexin-V (+)) and late apoptotic (PI (+) Annexin-V (+)).

[5] = tested on: non-tumorigenic bronchial epithelial (BEAS-2B) cell line; assay: MTT cell viability on normal cell line BEAS-2B; type: cell-based; details: Homo sapiens, BEAS-2B normal cell line, 24 h, read-out: IC50 ± S.D. BEAS-2B
Method: as §3

[6] = tested on: H460 NSCLC cells; assay: Hoechst 33342/PI nuclear co-staining apoptosis and accidental necrosis assay, H460; type: cell-based, human; details: cisplatin-sensitive H460, 7 h, 0–20 µM
Method: (§5) The anti-proliferative activity of compounds 1 and 3b against H292 and H460 cells were assessed across a range of concentrations (0–20 µM) under treatment at 10 and 24 h. […] The cytotoxic effect of 3b was closely resembled that of the parental compound 1 after 24 h treatment. According to their cytotoxic profiles at short treatment duration, the NSCLC cell lines were treated with various concentrations (0, 0.1, 1, 5, 10, and 20 µM) of compounds 1 and 3b, followed by Hoechst 33342 and PI staining to visualize morphological changes by fluorescence microscopy (Fig. 4C–F). The bright blue fluorescence of Hoechst 33342 indicated apoptosis, characterized by DNA condensation and fragmentation. In contrast, the red fluorescence emitted by propidium iodide (PI) indicated necrotic cell death. The percentage of apoptotic and necrotic cells was calculated based on the stained image.
(§6) NSCLC cells (H292 and H460) were seeded into a 96-well plate at a density of 1 × 10^4 cells/well for 24 h. Subsequently, the cells were treated with several concentrations of compounds 1 and 3b (0–20 µM) for 7 h. […] Visualization and imaging of the stained cells were carried out using a fluorescence microscope (Nikon ECLIPSE Ts2, Tokyo, Japan). […] The percentage of cell death was analyzed and reported.

[7] = tested on: dermal papilla (DP) cell line; assay: MTT cell viability on normal cell line DP; type: cell-based; details: 72 h
Method: as §3

[8] = tested on: H460 NSCLC cells; assay: Annexin V-FITC/PI double staining flow cytometry, H460; type: cell-based, human; details: H460, 7 h; statement for 1 at 20 µM
Method: as §4

[9] = tested on: H292 NSCLC cells; assay: Hoechst 33342/PI nuclear co-staining apoptosis and accidental necrosis assay, H292; type: cell-based, human; details: cisplatin-resistant H292, 7 h, 0–20 µM; statement for 1 at the highest concentration (20 µM)
Method: as §5, §6

[10] = 10 h, 0–20 µM, read-out: IC50 ± S.D. H460 10 h
[11] = 24 h, 0–20 µM, read-out: IC50 ± S.D. H460 24 h
[12] = 72 h, read-out: IC50 ± S.D. H460
[13] = 10 h, 0–20 µM, read-out: IC50 ± S.D. H292 10 h
[14] = 24 h, 0–20 µM, read-out: IC50 ± S.D. H292 24 h
[15] = 72 h, read-out: IC50 ± S.D. H292

Compound: C/C=C(/C)C(=O)OC[C@H]1c2c(c(OC(=O)CC)c(C)c3c2OCO3)C[C@H]2[C@H]3C4=C(C[C@@H]([C@H](C#N)N12)N3C)C(=O)C(C)=C(OC)C4=O [Compound 3b, 5-O-(3-propanoyl) ester of renieramycin T]
- IC50 [1, 10]: 18800 ± 400 nM
- IC50 [1, 11]: 7320 ± 520 nM
- IC50 [1, 12]: 33.9 ± 1.95 nM
- IC50 [2, 13]: 17600 ± 6580 nM
- IC50 [2, 14]: 4140 ± 840 nM
- IC50 [2, 15]: 33.4 ± 0.87 nM
- IC50 [3]: 33.7 ± 9.43 nM
- Mode of cell death by annexin V-FITC/PI flow cytometric analysis [4]: early apoptosis with minimal necrosis
- IC50 [5]: 90.2 ± 9.49 nM
- Mode of cell death (apoptosis / accidental necrosis) by Hoechst 33342/PI staining [6]: induced apoptosis with minimal necrosis
- IC50 [7]: 23.6 ± 0.65 nM
- Mode of cell death by annexin V-FITC/PI flow cytometric analysis [8]: early apoptosis with minimal necrosis
- Mode of cell death (apoptosis / accidental necrosis) by Hoechst 33342/PI staining [9]: morphological apoptosis with no detectable necrotic cells

Compound: C/C=C(/C)C(=O)OC[C@H]1C2=C(C[C@H]3[C@H]4C5=C(C[C@@H]([C@H](C#N)N13)N4C)C(=O)C(C)=C(OC)C5=O)C(=O)C(C)=C(OC)C2=O [Compound 1, Renieramycin M]
- IC50 [1, 10]: 12000 ± 2730 nM
- IC50 [1, 11]: 4130 ± 1000 nM
- IC50 [1, 12]: 35.6 ± 1.82 nM
- IC50 [2, 13]: 4920 ± 3140 nM
- IC50 [2, 14]: 3240 ± 800 nM
- IC50 [2, 15]: 34.4 ± 1.7 nM
- IC50 [3]: 8.01 ± 0.53 nM
- Mode of cell death by annexin V-FITC/PI flow cytometric analysis [4]: necrotic cell death in both H292 and H460 cell lines in conjugation with late apoptosis
- IC50 [5]: 75 ± 9.77 nM
- Mode of cell death (apoptosis / accidental necrosis) by Hoechst 33342/PI staining [6]: unwanted necrosis was observed in a dosed-dependent manner
- IC50 [7]: 7.07 ± 1.5 nM
- Mode of cell death by annexin V-FITC/PI flow cytometric analysis [8]: necrotic cell death in both H292 and H460 cell lines in conjugation with late apoptosis
- Mode of cell death (apoptosis / accidental necrosis) by Hoechst 33342/PI staining [9]: induced both apoptosis and accidental necrosis
